In US20090264420A1, “ORGANIC COMPOUNDS” (priority 2006, published 2009):
Values belong to the molecule of their own block, whether it stands above or below them.

Key:
[1] = target: T1, aldosterone synthase (Homo sapiens, UniProt P19099); assay: Aldosterone production in Ang II-stimulated NCI-H295R cells (aldosterone synthase inhibition); type: cell-based; conditions: AS: aldosterone synthase
T1 construct: host or cells: NCI-H295R
T1 sequence (P19099 25-503): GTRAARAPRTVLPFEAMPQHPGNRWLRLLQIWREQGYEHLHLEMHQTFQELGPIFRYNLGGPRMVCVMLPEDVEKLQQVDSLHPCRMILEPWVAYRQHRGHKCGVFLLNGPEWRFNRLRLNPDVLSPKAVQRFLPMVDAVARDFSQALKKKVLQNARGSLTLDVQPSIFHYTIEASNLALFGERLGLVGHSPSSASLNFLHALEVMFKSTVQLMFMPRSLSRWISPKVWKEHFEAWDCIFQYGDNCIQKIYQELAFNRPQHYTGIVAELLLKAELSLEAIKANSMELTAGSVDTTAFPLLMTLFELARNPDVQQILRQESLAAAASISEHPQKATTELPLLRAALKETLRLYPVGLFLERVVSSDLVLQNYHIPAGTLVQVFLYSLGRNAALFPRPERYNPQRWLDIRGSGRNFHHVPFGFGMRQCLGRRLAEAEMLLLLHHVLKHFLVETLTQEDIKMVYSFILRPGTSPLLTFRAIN
From the text: (§1) Human adrenocortical carcinoma NCI-H295R cell line is obtained from American Type Culture Collection (Manassas, Va.). Insulin/transferrin/selenium (ITS)-A supplement (100×), DMEM/F-12, antibiotic/antimycotic (100×), and fetal calf serum (FCS) are purchased from Gibco (Grand Island, N.Y.). Anti-mouse PVT scintillation proximity assay (SPA) beads and NBS 96-well plates are obtained from Amersham (Piscataway, N.J.) and Corning (Acton, Mass.), respectively. Solid black 96-well flat bottom plates are purchased from Costar (Corning, N.Y.). Aldosterone and angiotensin (Ang II) are purchased from Sigma (St. Louis, Mo.). D-[1,2,6,7^−3H(N)]aldosterone was acquired from PerkinElmer (Boston, Mass.). Nu-serum was a product of BD Biosciences (Franklin Lakes, N.J.). The NADPH regenerating system, dibenzylfluorescein (DBF), and human aromatase Supersomes® are obtained from Gentest (Woburn, Mass.).
For in vitro measurement of aldosterone activity, human adrenocortical carcinoma NCI-H295R cells are seeded in NBS 96-well plates at a density of 25,000 cells/well in 100 μl′ of a growth medium containing DMEM/F12 supplemented with 10% FCS, 2.5% Nu-serum, 1 μg ITS/ml, and 1× antibiotic/antimycotic. The medium is changed after culturing for 3 days at 37° C. under an atmosphere of 5% CO2/95% air. On the following day, cells are rinsed with 100 μl of DMEM/F12 and incubated with 100 μl of treatment medium containing 1 μM Ang II and a compound at different concentrations in quadruplicate wells at 37° C. for 24 hr. At the end of incubation, 50 μl of medium is withdrawn from each well for measurement of aldosterone production by an RIA using mouse anti-aldosterone monoclonal antibodies.
Measurement of aldosterone activity can also be performed using, a 96-well plate format. Each test sample is incubated with 0.02 μCi of D-[1,2,6,7-^3H(N)]aldosterone and 0.3 μg of anti-aldosterone antibody in phosphate-buffered saline (PBS) containing 0.1% Triton X-100, 0.1% bovine serum albumin, and 12% glycerol in a total volume of 200 μl at room temperature for 1 hr. Anti-mouse PVT SPA beads (50 μl) are then added to each well and incubated overnight at room temperature prior to counting in a Microbeta plate counter. The amount of aldosterone in each sample is calculated by comparing with a standard curve generated using known quantities of the hormone.
(§2) Full concentration-response curves of the test compound are performed at least 3 times. The IC50 values are derived using a non-linear least squares curve-fitting program from Microsoft XLfit.

[2] = target: T2, human aromatase (Homo sapiens, UniProt P11511); assay: Human aromatase assay with dibenzylfluorescein substrate (fluorescence); type: biochemical; conditions: 1.5 h; percentage of inhibitory rate at 10 μM; ARO: Aromatase; read-out: ARO % I @ 10 μM
T2 construct: purchased Gentest (Woburn, Mass.)
T2 sequence (P11511 1-503): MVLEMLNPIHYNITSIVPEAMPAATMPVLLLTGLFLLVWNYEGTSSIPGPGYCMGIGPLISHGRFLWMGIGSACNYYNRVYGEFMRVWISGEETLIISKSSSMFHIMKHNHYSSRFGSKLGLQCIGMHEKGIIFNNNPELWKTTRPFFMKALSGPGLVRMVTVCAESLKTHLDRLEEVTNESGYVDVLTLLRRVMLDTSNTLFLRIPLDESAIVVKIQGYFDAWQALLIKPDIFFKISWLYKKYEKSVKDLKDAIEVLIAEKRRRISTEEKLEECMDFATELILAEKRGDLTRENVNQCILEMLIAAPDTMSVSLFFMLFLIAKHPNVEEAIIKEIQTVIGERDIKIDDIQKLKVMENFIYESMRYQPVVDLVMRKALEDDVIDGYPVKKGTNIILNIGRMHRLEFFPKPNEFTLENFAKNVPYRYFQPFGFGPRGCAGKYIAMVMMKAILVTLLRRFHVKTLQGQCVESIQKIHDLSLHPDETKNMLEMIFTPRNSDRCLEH
From the text: as §1
To measure aromatase activity, the human aromatase assay is performed in 96-well flat bottom plates according to a published protocol (Stresser et al, 2000) with minor modifications. Briefly, 10 μl, of an NADPH regenerating system containing 2.6 mM NADP^+, 6.6 mM glucose 6-phosphate, 6.6 mM MgCl2, and 0.8 U/ml glucose-6-phosphate dehydrogenase in 50 mM potassium phosphate, pH 7.4, is pre-incubated with the test compound at a desired concentration at 30° C. for 10 min in a total volume of 100 μl. Afterwards, 4 pmol of human aromatase, 20 μg of control microsomal protein, and 4 μM DBF in 100 μl of 50 mM potassium phosphate, pH 7.4, is added to each well and incubated at 30° C. for 90 min. The reaction is terminated by the addition of 75 μl of 2 N NaOH to each well. After 2 hr, the product, fluorescein, is measured by a fluorimeter using excitation and emission wavelengths of 485 and 538 nm, respectively.
as §2

[3] = target: T3, CYP11B1 (Homo sapiens, UniProt P15538); assay: CYP11B1 inhibition in NCI-H295R cells (steroid release by radioimmunoassay); type: cell-based; conditions: percentage of inhibitory rate at 100 nM; 11B1: CYP11B1
T3 construct: Thus, the NCI-H295R cells have Cyp 11 B1 (steroid 11 p-hydroxylase); host or cells: NCI-H295R
T3 sequence (P15538 25-503): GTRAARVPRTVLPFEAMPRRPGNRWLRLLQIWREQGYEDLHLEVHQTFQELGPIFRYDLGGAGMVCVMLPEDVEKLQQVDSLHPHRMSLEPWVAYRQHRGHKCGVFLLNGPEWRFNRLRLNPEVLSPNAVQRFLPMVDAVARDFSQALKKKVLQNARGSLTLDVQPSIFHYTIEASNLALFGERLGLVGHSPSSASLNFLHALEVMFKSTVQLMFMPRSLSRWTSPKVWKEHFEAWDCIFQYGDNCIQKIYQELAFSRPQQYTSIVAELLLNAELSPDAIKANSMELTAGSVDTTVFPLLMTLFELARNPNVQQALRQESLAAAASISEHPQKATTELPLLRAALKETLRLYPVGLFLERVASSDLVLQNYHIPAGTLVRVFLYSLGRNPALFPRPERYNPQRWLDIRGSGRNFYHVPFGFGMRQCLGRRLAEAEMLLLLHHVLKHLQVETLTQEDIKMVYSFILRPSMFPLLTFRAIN
From the text: The in vitro inhibitory activities for CYP 11 B1 can be determined by the following assay.
The cell line NCI-H295R was originally isolated from an adrenocortical carcinoma and has been characterized in the literature through the stimulable secretion of steroid hormones and the presence of the enymes essential for steroidogenesis. Thus, the NCI-H295R cells have Cyp 11 B1 (steroid 11 p-hydroxylase). The cells show the physiological property of zonally undifferentiated human foetal adrenocortical cells which, however, have the capacity to produce the steroid hormones which are formed in the three, phenotypically distinguishable zones in the adult adrenal, cortex.
The NCI-H295R cells (American Type Culture Collection, ATCC, Rockville, Md., USA) are grown in Dulbeoco's Modified Eagle Ham F-12 Medium (DME/F12), which has been I supplemented with Ulroser SF Serum (Soprachem, Cergy-Saint-Christophe, France), insulin, transferrin, selenite (1-T-S, Becton Dickinson Biosiences, Franklin lakes, NJ, USA) and antibiotics in 75 cm^2 cell culture vessels at 37° C. and in a 95% air-5% carbon dioxide atmosphere. The cells are subsequently transferred for colony formation into a 24-well incubation vessel. They are cultivated there in DME/F12 medium, which is now supplemented with 0.1% bovine serum instead of Ultroser SF for 24 hours. The experiment is initiated by cultivating the cells in DME/F12 medium which is supplemented with 0.1% bovine serum albumin and test compound, in the presence or absence of cell stimulants, for 72 hours. The test substance is added in a concentration range from 0.2 nanomolar to […]. […]
The excretion of aldosterone, cortisol, corticosterone and estradiol/estrone into the culture medium can be detected and quantified by commercially available; specific monoclonal antibodies in radioimmunoassays in accordance with the manufacturer's instructions.
Inhibition of the release of certain steroids can be used as a measure of the respective enzyme inhibition by the added test compounds. The dose-dependent inhibition of enzymic activity by a compound is calculated by means of an inhibition plot which is characterized by an IC50.
The IC50 values for active test compounds are ascertained by a simple linear regression analysis in order to construct inhibition plots without data weighting. The inhibition plot is calculated by fting a 4-parameter logistic function to the raw data points using the least squares method. The equation of the 4-parameter logistic function is calculated as follows: Y=(d−a)/((1+(x/c)b))+aI where: a=minimum data level b gradient I c=ICED d=maximum data level x=inhibitor concentration.

Compound: CCC1(C(C)(C)C)C(=O)N(Cc2ccc(F)cc2)Cc2cncn21 (single isomer, unassigned) [Compound 1, 5-tert-Butyl-5-ethyl-7-(4-fluoro-benzyl)-7,8-dihydro-imidazo[1,5-a]pyrazin-6-one]
IC50 [1]: 139 nM | inhibition at 10 µM [2]: 18%

Compound: CCC(C)(C)C1C(=O)N(Cc2cccc(F)c2)CCc2cncn21 (single isomer, unassigned) [Compound 2, 4-(1,1-Dimethyl-propyl)-6-(3-fluoro-benzyl)-7,8-dihydro-6H-2,3a,6-triaza-azulen-5-one]
IC50 [1]: 48 nM | 11B1 % I @ 100 nM [3]: 100% | inhibition at 10 µM [2]: 60%

Compound: CC(C)(C)C1C(=O)N(Cc2ccc(Cl)cc2)Cc2cncn21 (single isomer, unassigned) [Compound 6, 5-tert-Butyl-7-(4-chloro-benzyl)-7,8-dihydro-imidazo[1,5-a]pyrazin-6-one]
IC50 [1]: 3 nM | 11B1 % I @ 100 nM [3]: 98% | inhibition at 10 µM [2]: 51%

Compound: N#Cc1ccc(CN2Cc3cncn3C(C3CC3)C2=O)cc1 (single isomer, unassigned) [Compound 8, 4-(5-Cyclopropyl-6-oxo-5,6-dihydro-8H-imidazo[1,5-a]pyrazin-7-ylmethyl)-benzonitrile]
IC50 [1]: 66 nM | 11B1 % I @ 100 nM [3]: 95% | inhibition at 10 µM [2]: 74%

Compound: O=C1C(C2CCC2)n2cncc2CCN1Cc1ccc(F)cc1 (single isomer, unassigned) [Compound 11, 4-Cyclobutyl-6-(4-fluoro-benzyl)-7,8-dihydro-6H-2,3a,6-triaza-azulen-5-one]
IC50 [1]: 197 nM | inhibition at 10 µM [2]: 99%

Compound: O=C1N(Cc2ccc(F)cc2)Cc2cncn2C12CCCCC2 [Compound 4, 7′-(4-fluorobenzyl)-7′,8′-dihydro-6′H-spiro[cyclohexane-1,5′-imidazole[1,5-a]pyrazin]-6-one]
IC50 [1]: 73 nM | 11B1 % I @ 100 nM [3]: 99%

Now from value to molecule:

IC50 [1]: 11 nM | inhibition at 10 µM [2]: 48%
Compound: CC(C)C1C(=O)N(CC2CCCCC2)Cc2cncn21 (single isomer, unassigned) [Compound 3, 7-Cyclohexylmethyl-5-isopropyl-7,8-dihydro-imidazo[5-a]pyrazin-6-one]

IC50 [1]: 18 nM | inhibition at 10 µM [2]: 93%
Compound: O=C1C(C2CCC2)n2cncc2CN1Cc1ccc(F)cc1 (single isomer, unassigned) [Compound 5, 5-Cyclobutyl-7-(4-fluoro-benzyl)-7,8-dihydro-imidazo[1,5-a]pyrazin-6-one]

IC50 [1]: 7 nM | inhibition at 10 µM [2]: 50%
Compound: CCC(C)(C)C1C(=O)N(CC2CCCCC2)Cc2cncn21 (single isomer, unassigned) [Compound 7, 7-Cyclohexylmethyl-5 (1,1-dimethyl-propyl)-7,8-dihydro-imidazo[1,5-a]pyrazin-6-one]

IC50 [1]: 231 nM | inhibition at 10 µM [2]: 94%
Compound: CC(C)C1C(=O)N(Cc2cccc(F)c2)Cc2cncn21 (single isomer, unassigned) [Compound 9, 7-(3-Fluoro-benzyl)-5-isopropyl-7,8-dihydro-imidazo[1,5-a]pyrazin-6-one]

IC50 [1]: 190 nM
Compound: CCC(C)(C)C1C(=O)N(CC2CCOCC2)Cc2cncn21 (single isomer, unassigned) [Compound 10, 5-(1,1-Dimethyl-propyl)-7-(tetrahydro-pyran-4-ylmethyl)-7,8-dihydro-imidazo[5-a]pyrazin-6-one]
